Test system: HSPC-pDCs
Test: TLR7 or TLR9 agonist activation, functional type I IFN (HEK-blue IFN-α/β reporter)
Type: cell-based, human
Procedure: Priming of HSPC-pDCs was performed as previously described. Isolated HSPC-pDCs were primed in the same medium as the differentiation was done in (either RPMI 1640, SFEM II or DC medium). […] For HSPC-pDCs differentiated in DC medium, medium was also supplemented with 50 μg/mL ascorbic acid. Cells were primed for three days before being phenotypically or functionally characterized.
To analyze the capacity of HSPC-pDCs to produce type I IFN, 4×10^4 pDCs were seeded out in 96-well plates in the same medium as the differentiation was done in (either RPMI 1640, SFEM II or DC medium). […] Cells were subsequently stimulated with agonists directed against TLR7 (R837, tlrl-imq, InvivoGen) or TLR9 (CpG-A 2216, tlrl-2216-1, InvivoGen) at a final concentration of 2.5 μg/mL. Twenty hours post stimulation supernatants were harvested and cryopreserved at −20° C. until analysis.
To quantify functional type I IFN, the reporter cell line HEK-blue IFN-α/β was utilized, according to the manufacturer's instructions (InvivoGen). […] Activity of SEAP was assessed using QUANTI-Blue (InvivoGen). Color change was measured at an optical density (OD) of 620 nm using the SpectraMax iD3 platereader (Molecular Devices). […]

What does the source list for `O=C1O[C@H]([C@@H](O)CO)C(O)=C1O` [ascorbic acid]?
type I IFN response to synthetic TLR7 and TLR9 agonists (HSPC-pDCs from AA culture, isolated day 16 and 21, in contrast to DC medium alone): robust type I IFN response; cHSPC-pDC TLR7 and TLR9-mediated type I IFN production (cHSPC-pDCs from peripheral blood cHSPCs, SFEM II, DC medium or DC medium+AA): required
